Test results from US20240327429A1, “[1,3]Thiazolo[4,5-d]-pyrimidon-7-ones as inhibitors of NOX4” (Boehringer Ingelheim International GmbH, priority 2023, published 2024).
Where “and” joins values, the source holds several entries; their conditions need not be identical. Equal values may be shown once.

How the values were obtained:
human hepatocytes = assay: Evaluation of hepatocyte clearance (metabolic stability); format: in vitro ADME; conditions: % of hepatic blood flow
Method: The metabolic degradation of the test compound is assayed in a hepatocyte suspension. Hepatocytes (cryopreserved) are incubated in Dulbecco's modified eagle medium (supplemented with […] glucagon/500 mL, 2.5 mg insulin/500 mL and 3.75 mg/500 mL hydrocortisone) containing 5% human serum.
Following a 30 min preincubation in an incubator (37° C., 10% CO2) 5 μl of test compound solution (80 μM; from 2 mM in DMSO stock solution diluted 1:25 with medium) are added into 395 μl hepatocyte suspension (cell density in the range 0.25-5 Mio cells/mL, typically 1 Mio cells/mL; final concentration of test compound 1 μM, final DMSO concentration 0.05%).
The cells are incubated for six hours (incubator, orbital shaker) and samples (25 μl) are taken at 0, 0.5, 1, 2, 4 and 6 hours. Samples are transferred into acetonitrile and pelleted by centrifugation (5 min). The supernatant is transferred to a new 96-deepwell plate, evaporated under nitrogen and resuspended.
Decline of Parent Compound is Analyzed by HPLC-MS/MS.
CLint is Calculated as Follows:
CL_[…]=Dose/AUC=(C0/CD)/(AUD+clast/k)×1000/60. • C0: initial concentration in the incubation [μM], CD: cell density of vital cells [10^6 cells/mL], AUD: area under the data [μM×h], clast: concentration of last data point [μM], • k: slope of the regression line for parent decline [h-1].
The calculated in vitro hepatic intrinsic clearance can be scaled up to the intrinsic in vivo hepatic clearance and used to predict hepatic in vivo blood clearance (CL) by the use of a liver model (well stirred model).
CL_[…]_INVIVO[ml/min/kg]=(CL_[…][μL/min/10^6 cells]×hepatocellularity[10^6 cells/g liver]×liver factor[g/kg bodyweight])/1000
CL[ml/min/kg]=CL_[…]_INVIVO[ml/min/kg]×hepatic blood flow[ml/min/kg]/(CL_[…]_INVIVO[ml/min/kg]+hepatic blood flow[ml/min/kg])

human NOX4 (hNOX4) = molecular target: T1, human NOX4 (hNOX4) (Homo sapiens, UniProt Q9NPH5); assay: cell-based
T1 sequence (Q9NPH5 1-578): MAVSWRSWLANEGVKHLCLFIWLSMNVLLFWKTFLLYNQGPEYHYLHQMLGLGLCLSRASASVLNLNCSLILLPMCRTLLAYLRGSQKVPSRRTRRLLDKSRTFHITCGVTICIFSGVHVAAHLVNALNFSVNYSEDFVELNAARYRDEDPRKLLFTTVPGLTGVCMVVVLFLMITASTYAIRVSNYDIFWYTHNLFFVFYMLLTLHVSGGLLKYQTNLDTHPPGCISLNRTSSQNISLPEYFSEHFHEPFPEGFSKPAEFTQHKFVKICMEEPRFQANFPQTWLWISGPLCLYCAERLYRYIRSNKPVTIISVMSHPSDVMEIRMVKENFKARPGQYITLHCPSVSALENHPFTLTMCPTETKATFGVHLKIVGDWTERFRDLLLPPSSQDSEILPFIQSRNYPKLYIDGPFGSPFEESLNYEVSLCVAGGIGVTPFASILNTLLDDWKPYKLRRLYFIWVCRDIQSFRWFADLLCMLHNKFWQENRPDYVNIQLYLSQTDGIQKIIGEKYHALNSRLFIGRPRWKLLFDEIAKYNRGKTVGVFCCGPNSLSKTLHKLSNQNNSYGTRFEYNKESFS
T1 sequence (P13498 2-195 partner limits assumed): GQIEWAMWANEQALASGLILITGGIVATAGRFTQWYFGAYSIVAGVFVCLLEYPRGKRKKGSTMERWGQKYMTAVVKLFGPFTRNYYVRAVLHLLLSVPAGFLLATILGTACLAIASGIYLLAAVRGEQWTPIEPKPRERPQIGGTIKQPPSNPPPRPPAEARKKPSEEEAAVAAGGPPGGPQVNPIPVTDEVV
Method: The synthetic gene phNOX4_DNA3_1_Zeo (Accession: AAF68973) is assembled from synthetic oligonucleotides and/or PCR products. The fragment is cloned into pcDNA3.1_Zeo_A011 using NheI and XhoI cloning sites. The plasmid DNA is purified from transformed bacteria and its concentration is determined by UV spectroscopy. The final construct is verified by sequencing. The plasmid is transfected via electroporation (Amaxa electroporation device) in combination with Nucleofector Kit V. Selection of NOX4 overexpressing genes is achieved using selection antibiotic Zeocin.
The inhibitory activity of the example compounds of the invention is determined using the following procedure:
Cells are cultured in the Dulbecco's Modified Eagle Medium (DMEM) media containing 4.5 g/L glucose supplemented with 10% fetal calf serum and 250 μg/ml Zeocin in an incubator at 37° C. with 5% CO2. For the assay, cells are seeded in 384 well plates.
After incubation Lumigen HyPerBlu™ is added and cells are incubated for additional 30 min at 24° C. in a humidified incubator. Next, luminescence is measured using an Envision Multimode Plate reader to determine levels of produced H2O2 in the wells.

human NOX1 (hNOX1) = molecular target: T2, human NOX1 (hNOX1) (Homo sapiens, UniProt Q9Y5S8); assay: NOX1 inhibition assay (L-012), HEK293 cells stably overexpressing human NOX1; format: cell-based; conditions: HEK293-hNOX1, PMA stimulated
T2 construct: pLV-CMV-hNOX1-puro (NM_007052.5); host or cells: HEK293 (CLS GmbH), lentiviral transduction
T2 sequence (Q9Y5S8 1-564): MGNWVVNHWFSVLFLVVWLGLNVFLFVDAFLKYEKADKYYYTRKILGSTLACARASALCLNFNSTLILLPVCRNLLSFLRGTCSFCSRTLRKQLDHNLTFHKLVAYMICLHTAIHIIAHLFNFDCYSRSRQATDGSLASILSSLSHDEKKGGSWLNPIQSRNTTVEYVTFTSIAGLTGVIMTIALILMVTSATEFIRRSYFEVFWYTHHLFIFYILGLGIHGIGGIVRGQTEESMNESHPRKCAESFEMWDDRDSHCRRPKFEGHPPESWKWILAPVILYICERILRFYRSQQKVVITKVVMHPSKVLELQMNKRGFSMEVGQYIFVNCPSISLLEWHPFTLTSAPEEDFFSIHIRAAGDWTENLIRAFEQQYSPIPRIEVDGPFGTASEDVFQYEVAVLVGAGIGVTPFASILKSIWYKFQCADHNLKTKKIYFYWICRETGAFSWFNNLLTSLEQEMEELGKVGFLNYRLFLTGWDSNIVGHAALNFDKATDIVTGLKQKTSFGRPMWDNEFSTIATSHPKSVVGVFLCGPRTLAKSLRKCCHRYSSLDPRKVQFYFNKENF
T2 sequence (P13498 2-195 partner limits assumed): T1 sequence (P13498 2-195 partner limits assumed)
Text: Plasmids are Purchased from Vectorbuilder. • for HEK-hNOX1 all necessary subunits are cloned accordingly: • pLV-CMV-hNOX1-puro (NM_007052.5) • pLV-CMV-hNOXO1-blas (NM_172168.3) • pLV-CMV-hp22phox-hygro (NM_000101.4) • pLV-CMV-hNOXA1-neo (NM_006647.2) • for HEK-hNOX3 • pLV-CMV-hNOX3-puro (NM_015718.3)
3rd generation lentiviral particles are produced in HEK293 suspension cells by transient transfection of three helper and expression plasmids. Crucial lentivirus supernatants are harvested, clarified by filtration and concentrated by precipitation. Lentivirus titers are determined in transducing units in (TU/mL) by transduction of HT1080 cells and colony forming assay. Parental HEK293 cells, purchased from CLS GmbH, are transduced with replication-incompetent 3rd generation lentiviral particles (MOI 2) and expanded for at least 2 weeks before cryopreservation of tested lots. During cultivation, medium is changed three times per week and cells are sub-cultured at least once per week. Selection antibiotics are added according to the plasmids (1 μg/ml puromycin, 1.5 μg/ml blasticidin, 200 μg/ml G418 and 100 μg/ml hygromycin).
Evaluation of the NOX4 inhibitors on NOX1 activity is assessed in HEK293 cells stably overexpressing human NOX1 (hNOX1).
Lastly, 8-amino-5-chloro-2,3-dihydro-7-phenyl-pyrido[3,4-d]pyridazine-1,4-dione sodium salt (L-012, CAS 143556-24-5) is added at 400 μM to all wells, and cells are incubated in an incubator for an additional 3 h. Afterwards luminescence is measured with a SpectraMax Paradigm Microplate Reader.

NOX4 = molecular target: T3, NOX4 (Homo sapiens, UniProt Q9NPH5); conditions: modified HEK cells, Amplex Red; read-out: NOX4 IC50 [μM] as disclosed in WO2016207785; cited from earlier work
T3 construct: host or cells: modified HEK cells
T3 sequence (Q9NPH5 1-578): T1 sequence (Q9NPH5 1-578)
T3 sequence (P13498 2-195 partner limits assumed): T1 sequence (P13498 2-195 partner limits assumed)

clearance in human hepatocytes (human hepatocytes) [% QH]	IC50 (human NOX4 (hNOX4))	IC50 (human NOX1 (hNOX1)) [µM]	Structure (SMILES)	IC50 (NOX4) [µM]
29	–	–	O=C(Nc1ccc2oc(N3CCC34COC4)nc2c1)c1ccc2c(c1)CCO2 [Example 15 of WO2016207785]	–
–	1.65 µM	–	O=c1c2scnc2nc(SCc2c(F)cc(F)cc2F)n1-c1cncc(F)c1 [reference compound]	–
52	0.56 µM and 0.555 µM	> 100	O=c1c2scnc2nc(SCc2cccc(F)c2)n1-c1ccc(O)cc1 [Example 1, 5-((3-Fluorobenzyl)thio)-6-(4-hydroxyphenyl)thiazolo[4,5-d]pyrimidin-7(6H)-one]	0.34
–	8.12 µM	–	Cc1cc(F)ccc1CSc1nc2ncsc2c(=O)n1-c1cccnc1 [reference compound]	–
–	5.45 µM	–	O=c1c2scnc2nc(SCc2ccc(Cl)cc2)n1-c1cccnc1 [reference compound]	–
46	–	–	O=C(Nc1ccc2c(c1)CCO2)c1ccc2oc(N3CCC34COC4)nc2c1 [Example 80]	–
